The text below walks through data of patent US10781426B2 (priority 2012, dated 2020).

Assay [1] relates to DPP4. It counts as cell-based.
For assay [2], the system named is HCoV EMC. It counts as cell-based.

With `Nc1ncnc2c1ncn2[C@@H]1O[C@H](CO)[C@@H](O)[C@H]1O` [adenosine], the DPP4 expression entry in assay [1] was “down regulates”. In assay [2], the “cells' susceptibility to virus infection” value was “reduces the cells' susceptibility to virus infection” and the virus replication entry is “reduces virus replication”.
